The source of these data is US8822479B2, “6-cyclylmethyl-and 6-alkylmethyl-substituted pyrazolepyrimidines” (Boehringer Ingelheim International GmbH, priority 2003, dated 2014).

SMILES strings stand for the structures. Counter-ions that a name gives are not always drawn.

For one data set, the target named is human PDE9A (Homo sapiens (Human), UniProt O76083). The note with it: concentrations of up to 100 μM; cited from earlier work.
Chain of human PDE9A (O76083 whole entry): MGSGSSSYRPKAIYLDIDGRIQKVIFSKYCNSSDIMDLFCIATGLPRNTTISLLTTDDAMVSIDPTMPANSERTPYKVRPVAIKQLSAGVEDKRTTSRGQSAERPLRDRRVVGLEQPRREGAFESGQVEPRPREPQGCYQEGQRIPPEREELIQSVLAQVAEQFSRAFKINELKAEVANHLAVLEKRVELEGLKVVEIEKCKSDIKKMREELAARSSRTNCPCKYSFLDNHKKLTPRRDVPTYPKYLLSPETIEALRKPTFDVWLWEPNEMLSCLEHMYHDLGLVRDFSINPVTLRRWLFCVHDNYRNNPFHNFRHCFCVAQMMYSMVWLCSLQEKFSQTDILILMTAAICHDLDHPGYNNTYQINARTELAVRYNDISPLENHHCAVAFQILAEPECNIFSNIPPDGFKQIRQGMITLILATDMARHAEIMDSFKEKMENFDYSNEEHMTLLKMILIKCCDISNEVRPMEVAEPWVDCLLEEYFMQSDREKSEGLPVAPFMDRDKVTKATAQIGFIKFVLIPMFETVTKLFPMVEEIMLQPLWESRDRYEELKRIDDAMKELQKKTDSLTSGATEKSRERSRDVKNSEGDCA
With `CC(C)Cn1c(=O)n(C)c(=O)c2[nH]cnc21` [IBMX], the “inhibition on the isolated enzyme” value is “no inhibition”.

As for `CC(=O)Nc1ccc(-c2c[nH]c(=O)cn2)cc1` [SKF94120], the “inhibition on the isolated enzyme” value is “no inhibition”.

As to `OCCN(CCO)c1nc(N2CCCCC2)c2nc(N(CCO)CCO)nc(N3CCCCC3)c2n1` [dipyridamole], the “inhibition on the isolated enzyme” value is reported as “no inhibition”.

As for `COc1ccc(C2CNC(=O)C2)cc1OC1CCCC1` (stereo not shown) [rolipram], the “inhibition on the isolated enzyme” value is on record as “no inhibition”.

As to `CCOC(=O)C1=C[C@]2(CC)CCCN3CCc4c(n1c1ccccc41)[C@@H]32` [vinpocetine], the “inhibition on the isolated enzyme” value is on record as “no inhibition”.

In the next data set the target is Murine PDE9A (Mus musculus (Mouse), UniProt O70628). The following applies: concentrations below 200 μM; cited from earlier work.
Chain of Murine PDE9A (O70628 whole entry): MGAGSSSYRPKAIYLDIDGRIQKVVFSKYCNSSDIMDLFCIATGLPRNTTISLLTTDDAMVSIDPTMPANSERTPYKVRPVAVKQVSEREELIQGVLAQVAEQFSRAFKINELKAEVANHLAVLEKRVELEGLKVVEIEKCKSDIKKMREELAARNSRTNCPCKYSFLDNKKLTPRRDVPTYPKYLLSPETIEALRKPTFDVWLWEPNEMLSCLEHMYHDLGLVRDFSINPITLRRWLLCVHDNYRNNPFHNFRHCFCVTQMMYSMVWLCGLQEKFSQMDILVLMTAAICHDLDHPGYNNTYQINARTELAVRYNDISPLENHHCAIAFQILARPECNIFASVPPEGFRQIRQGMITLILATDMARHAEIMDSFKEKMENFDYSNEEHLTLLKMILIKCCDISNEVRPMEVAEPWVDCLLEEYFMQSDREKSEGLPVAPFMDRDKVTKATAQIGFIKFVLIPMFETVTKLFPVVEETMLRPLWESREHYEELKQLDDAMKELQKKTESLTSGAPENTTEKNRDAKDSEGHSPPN
Consider `CC(C)Cn1c(=O)n(C)c(=O)c2[nH]cnc21` [IBMX], for which the “inhibition of murine PDE9A” value is given as “not inhibited”.

Test system in a further data set: not given
Conditions: not given
The melting point is the temperature, or range, at which the solid turns liquid. `Cc1ccccc1-n1ncc2c(=O)[nH]c(CC3CCCC3)nc21` (as salt: sodium) came in with a melting point of 181 °C.

Compound `Cc1ccncc1-n1ncc2c(=O)[nH]c(CC3CCCC3)nc21` (as salt: sodium) returned a melting point of 206 °C.

With `CCc1ccccc1-n1ncc2c(=O)[nH]c(CC3C=CCC3)nc21` (stereo not shown) (as salt: sodium) [Example 8, 6-(2-Cyclopenten-1-ylmethyl)-1-(2-ethylphenyl)-1,5-dihydro-4H-pyrazolo[3,4-d]pyrimidin-4-one], the melting point is 146 °C.

For `Cc1ccccc1-n1ncc2c(=O)[nH]c(CC3C=CCC3)nc21` (stereo not shown) (as salt: sodium) [Example 9, 6-(2-Cyclopenten-1-ylmethyl)-1-(2-methylphenyl)-1,5-dihydro-4H-pyrazolo[3,4-d]pyrimidin-4-one], the melting point amounted to 179 °C.

Compound `Cc1ccccc1-n1ncc2c(=O)[nH]c(CC3CCCCC3)nc21` (as salt: sodium) [Example 10, 6-Cyclohexylmethyl-1-(2-methylphenyl)-1,5-dihydro-4H-pyrazolo[3,4-d]pyrimidin-4-one] showed a melting point of 169 °C.

For the compound `O=c1[nH]c(CC2C=CCC2)nc2c1cnn2-c1ccccc1C(F)(F)F` (stereo not shown) (as salt: sodium) [Example 14, 6-(2-Cyclopenten-1-ylmethyl)-1-[2-(trifluoromethyl)phenyl]-1,5-dihydro-4H-pyrazolo[3,4-d]pyrimidin-4-one], the melting point came to 153 °C.

`O=c1[nH]c(CC2C=CCC2)nc2c1cnn2-c1ccccc1F` (stereo not shown) (as salt: sodium) [Example 15, 6-(2-Cyclopenten-1-ylmethyl)-1-(2-fluorophenyl)-1,5-dihydro-4H-pyrazolo[3,4-d]pyrimidin-4-one] came in with a melting point of 163 °C.

On to `O=c1[nH]c(CC2C=CCC2)nc2c1cnn2-c1ccccc1Cl` (stereo not shown) (as salt: sodium) [Example 16, 6-(2-Cyclopenten-1-ylmethyl)-1-(2-chlorophenyl)-1,5-dihydro-4H-pyrazolo[3,4-d]pyrimidin-4-one], for which the melting point was 150 °C.

As for `O=c1[nH]c(CC2C=CCC2)nc2c1cnn2-c1ccccn1` (stereo not shown) (as salt: sodium) [Example 17, 6-(2-Cyclopenten-1-ylmethyl)-1-(2-pyridinyl)-1,5-dihydro-4H-pyrazolo[3,4-d]pyrimidin-4-one], the melting point came out at 239 °C.

`COc1ccccc1-n1ncc2c(=O)[nH]c(CC3C=CCC3)nc21` (stereo not shown) (as salt: sodium) [Example 18, 6-(2-Cyclopenten-1-ylmethyl)-1-(2-methoxyphenyl)-1,5-dihydro-4H-pyrazolo[3,4-d]pyrimidin-4-one]: the melting point worked out at 182 °C.

Regarding `CC(C)Cc1nc2c(cnn2-c2ccccc2Cl)c(=O)[nH]1` (as salt: sodium) [Example 40, 1-(2-Chlorophenyl)-6-(2-methylpropyl)-1,5-dihydro-4H-pyrazolo[3,4-d]pyrimidin-4-one], the melting point was 204 °C.

Compound `CCC(CC)Cc1nc2c(cnn2-c2cnccc2C)c(=O)[nH]1` (as salt: sodium) [Example 41, 6-(2-Ethylbutyl)-1-(4-methylpyridin-3-yl)-1,5-dihydro-4H-pyrazolo[3,4-d]pyrimidin-4-one] gave a melting point of 143 °C.

Compound `Cc1ccncc1-n1ncc2c(=O)[nH]c(CC3CCCCC3)nc21` (as salt: sodium) [Example 43, 6-Cyclohexylmethyl-1-(4-methylpyridin-3-yl)-1,5-dihydro-4H-pyrazolo[3,4-d]pyrimidin-4-one] gave a melting point of 206 °C.

On to `CCC(C)Cc1nc2c(cnn2-c2ccccc2C)c(=O)[nH]1` (racemic) (as salt: sodium) [Example 35, 6-(2-Methylbutyl)-1-(2-methylphenyl)-1,5-dihydro-4H-pyrazolo[3,4-d]pyrimidin-4-one], for which the melting point amounted to 132 °C.

Regarding `Cc1ccccc1-n1ncc2c(=O)[nH]c(CC(C)C(F)(F)F)nc21` (racemic) (as salt: sodium) [Example 36, 1-(2-Methylphenyl)-6-(3,3,3-trifluoro-2-methylpropyl)-1,5-dihydro-4H-pyrazolo[3,4-d]pyrimidin-4-one], the melting point was determined as 160 °C.

As for `CCC(C)Cc1nc2c(cnn2-c2cnccc2C)c(=O)[nH]1` (racemic) (as salt: sodium) [Example 39, 6-(2-Methylbutyl)-1-(4-methylpyridin-3-yl)-1,5-dihydro-4H-pyrazolo[3,4-d]pyrimidin-4-one], the melting point worked out at 149 °C.
